From the NIST ThermoML archive (doi:10.1007/s10765-005-5571-9)

Legend:
[1] = 298.15 K; 101.3 kPa; Liquid
[2] = xn = mol fraction of the nth substance listed; settings: 298 K, 101.3 kPa, Liquid

CC(=O)OCCC(C)C [3-methylbutyl ethanoate]
Settings	mass density [kg/m3]
[1]	867.356

CC(=O)OCCC(C)C [3-methylbutyl ethanoate] + C=C(C)C(=O)OC
[2]
Settings	mass density [kg/m3]
x1 = 0.0263	934.984
x1 = 0.0515	932.526
x1 = 0.1007	927.871
x1 = 0.1599	922.52
x1 = 0.2002	919.025
x1 = 0.25	914.86
x1 = 0.3053	910.408
x1 = 0.3502	906.93
x1 = 0.4005	903.17
x1 = 0.4504	899.578
x1 = 0.5005	896.102
x1 = 0.5502	892.767
x1 = 0.6005	889.513
x1 = 0.6538	886.188
x1 = 0.7003	883.384
x1 = 0.7508	880.451
x1 = 0.8003	877.66
x1 = 0.85	874.956
x1 = 0.9002	872.311
x1 = 0.9499	869.798
x1 = 0.9751	868.558
x1 = 1	867.356

CC(=O)OCCC(C)C [3-methylbutyl ethanoate] + C=CC(=O)OCC
Settings	mass density [kg/m3]
[2], x1 = 1	867.356

CC(=O)OCCC(C)C [3-methylbutyl ethanoate] + C=CC(=O)OCCCC
Settings	mass density [kg/m3]
[2], x1 = 1	867.356

CC(=O)OCCC(C)C [3-methylbutyl ethanoate] + C=Cc1ccccc1
[2]
Settings	mass density [kg/m3]
x1 = 0.0293	900.833
x1 = 0.0529	899.946
x1 = 0.0997	898.18
x1 = 0.1502	896.274
x1 = 0.2	894.422
x1 = 0.2502	892.59
x1 = 0.3064	890.541
x1 = 0.3509	888.929
x1 = 0.4042	887.046
x1 = 0.4508	885.398
x1 = 0.5011	883.646
x1 = 0.5571	881.719
x1 = 0.6002	880.257
x1 = 0.6507	878.546
x1 = 0.7003	876.895
x1 = 0.7514	875.198
x1 = 0.7999	873.614
x1 = 0.8507	871.983
x1 = 0.9005	870.41
x1 = 0.9499	868.881
x1 = 0.9747	868.119
x1 = 1	867.356

C=CC(=O)OCCCC [butyl 2-propenoate]
Settings	mass density [kg/m3]
[1]	893.947

C=CC(=O)OCCCC [butyl 2-propenoate] + CC(=O)OCCC(C)C
[2]
Settings	mass density [kg/m3]
x2 = 0	893.947
x2 = 0.0257	893.222
x2 = 0.0496	892.552
x2 = 0.1035	891.059
x2 = 0.1504	889.769
x2 = 0.2	888.407
x2 = 0.2504	887.04
x2 = 0.2999	885.689
x2 = 0.3512	884.304
x2 = 0.4001	882.985
x2 = 0.4521	881.596
x2 = 0.5	880.304
x2 = 0.55	878.984
x2 = 0.6	877.664
x2 = 0.65	876.356
x2 = 0.7003	875.048
x2 = 0.7502	873.751
x2 = 0.7998	872.467
x2 = 0.85	871.176
x2 = 0.9	869.889
x2 = 0.95	868.618
x2 = 0.9752	867.98

C=CC(=O)OCC [ethyl propenoate]
Settings	mass density [kg/m3]
[1]	916.124

C=CC(=O)OCC [ethyl propenoate] + CC(=O)OCCC(C)C
[2]
Settings	mass density [kg/m3]
x2 = 0	916.124
x2 = 0.031	913.999
x2 = 0.0501	912.721
x2 = 0.0999	909.503
x2 = 0.1505	906.326
x2 = 0.2012	903.286
x2 = 0.2501	900.442
x2 = 0.301	897.604
x2 = 0.3512	894.897
x2 = 0.402	892.257
x2 = 0.4505	889.84
x2 = 0.501	887.406
x2 = 0.5502	885.117
x2 = 0.6002	882.87
x2 = 0.6518	880.634
x2 = 0.7001	878.602
x2 = 0.7499	876.582
x2 = 0.8008	874.573
x2 = 0.8514	872.644
x2 = 0.9001	870.846
x2 = 0.9503	869.055
x2 = 0.9752	868.197

C=C(C)C(=O)OC [methyl methacrylate]
Settings	mass density [kg/m3]
[1]	937.628

C=C(C)C(=O)OC [methyl methacrylate] + CC(=O)OCCC(C)C
Settings	mass density [kg/m3]
[2], x2 = 0	937.628

C=Cc1ccccc1 [styrene]
Settings	mass density [kg/m3]
[1]	901.941

C=Cc1ccccc1 [styrene] + CC(=O)OCCC(C)C
Settings	mass density [kg/m3]
[2], x2 = 0	901.941
